Data taken from patent publication US20260224574A1, “ANTIFUNGAL COMPOSITIONS AND METHODS OF USE THEREOF” (ARIZONA BOARD OF REGENTS ON BEHALF OF THE UNIVERSITY OF …, priority 2023, published 2026).

Test system: Cne H99 strain
Assay: cell-based anti-Cryptococcus neoformans growth inhibition dose-response assay (resazurin to resorufin fluorescence)
Conditions: Cne H99, concentration series 0.02-50 μM, 24 hours incubation
Protocol: For primary screening, a cell-based high-throughput screening (HTS) assay was developed for testing the growth inhibition of Cne H99 strain of fungus. […] After standardizing the assay in 96 well plates, it was optimized in a 384-well plate.
The compound library included known bioactives, commercial libraries, and academic molecules. For HTS, the fungal cells were grown in SD broth overnight and diluted in Sabouraud dextrose (SD) broth to an optical density at 600 nm (OD600) of 0.5. […] From this cell suspension, 20 μL of the cells was added to each well of the 384-well assay plate (black, clear bottom) containing test compounds. Plates with test compounds were prepared by adding 20 μL of RPMI-MOPS medium to each well using a liquid dispenser (Thermo Multidrop Combi), followed by transferring 1 μL of the test compounds to all wells of the 22 columns in the assay plate using a robot. Dimethyl sulfoxide (DMSO) as vehicle control or 0.8 μM AmB as positive control was added manually to the remaining two columns using a multichannel pipet. […] Additionally, the absorbance was also read at 600 nm using the plate reader (EnVision, PerkinElmer).
Concentration series (0.02-50 μM) of test compounds and equalizing volume of DMSO were dispensed, using a liquid handler (D300e, Hewlett-Packard), to the 384-well plates. Following the addition of the Cne cells, the assay plates were incubated for 24 hours, followed by a fluorescence reading of resorufin as explained for single-concentration screening. The IC50 was calculated by graphpad prism.

SMILES	IC50
Clc1ccc(CCNc2ncnc3sccc23)cc1 [compound 1]	0.35 µM
c1ccc(CN2CCOc3ccccc3CCCCC3(CCNCC3)C2)cc1 [compound 2]	0.57 µM
COc1ccc(OCc2nnc3sc(-c4ccc5c(c4)OCCO5)nn23)cc1 [compound 3]	0.6 µM
Clc1cc(Cl)c(OCC#CI)cc1Cl [compound 6]	1.44 µM
Nc1ccc2ncnc(NCCc3ccc(Oc4ccccc4)cc3)c2c1 [compound 10]	1.83 µM
O=c1nc(SCc2ccc(F)cc2)c2c(n1Cc1ccccc1)CCC2 [compound 11]	2.27 µM
CC(C)CCNCC(O)Cn1c2ccc(Br)cc2c2cc(Br)ccc21 (stereo not drawn) [compound 12]	2.41 µM
O=C(O)c1ccc(-c2ccc3cc(C45CC6CC(CC(C6)C4)C5)c(O)cc3c2)cc1 [compound 13]	2.46 µM
CCOC(=O)c1sc(NC(=O)c2ccco2)c(SC#N)c1C [compound 22]	3.11 µM
CCCCCCCCc1ccc(CCC(N)(CO)CO)cc1 [compound 35]	4.76 µM
COC(=O)c1sc(-c2cccs2)cc1N1C(=O)C=CC1=O [compound 36]	4.87 µM
Cc1ccc(S(=O)(=O)C=CC#N)cc1 [compound 39]	5.07 µM
Cc1cc(C)cc(N2C(=O)C=CC2=O)c1 [compound 42]	5.31 µM
Cc1ccccc1Nc1nc(Nc2ccccc2)c2cnn(C)c2n1 [compound 44]	5.38 µM
CCC(C)c1ccc(N2C(=O)C=CC2=O)cc1 (stereo not drawn) [compound 45]	5.49 µM
NC(=O)c1cnc(NCCc2ccc(O)c(Cl)c2)nc1NCc1ccccc1 [compound 52]	6.28 µM
CCCCOc1ccc(-c2cc3c(N4CCN(CC)CC4)nccn3n2)cc1 [compound 69]	8.19 µM
COc1ccc(CC2NCC(O)C2OC(C)=O)cc1 (stereo not drawn) [compound 81]	9.69 µM
CN1c2cc3c(cc2N=C(c2ccc(C(=O)O)cc2)c2ccccc21)C(C)(C)CCC3(C)C [compound 88]	10.1 µM
Cc1cc(Nc2nc(NC(C)c3ccc(F)cc3)c(C#N)cc2F)n[nH]1 (stereo not drawn) [compound 89]	10.4 µM
C(=N/n1cnnc1)/c1ccc(N(c2ccccc2)c2ccccc2)cc1 [compound 90]	10.5 µM

Same assay, conditions: Cryptococcus neoformans, H99STRAIN, Cne H99, concentration series 0.02-50 μM, 24 hours incubation

SMILES	IC50
CC[n+]1c(/C=C/C=C2/N(C)c3ccccc3C2(C)C)sc2ccccc21 [compound 7]	1.57 µM
OCCCNc1cc(-c2ccnc(Nc3cccc(Cl)c3)n2)ccn1 [compound 8]	1.66 µM
Cc1ccc(NC(=O)Nc2ncc(-c3ccccc3)n2C)cc1Cl [compound 9]	1.68 µM
c1cc2c(cc1C1CCCCC1)c1c3n2CCNC3CCC1 (stereo not drawn) [compound 14]	2.52 µM
Cc1cccc2c1-c1sc(C(=O)NCCCN3CCC(Cc4ccccc4)CC3)cc1CO2 [compound 15]	2.53 µM
CNC(=O)c1ccccc1Nc1nc(Nc2ccc(N3CCOCC3)cc2OC)ncc1Cl [compound 16]	2.57 µM
Clc1ccc(C(c2ccc(Cl)cc2)[n+]2ccn(CC(OCc3ccc(Cl)cc3Cl)c3ccc(Cl)cc3Cl)c2)cc1 (stereo not drawn) [compound 17]	2.63 µM
Cc1ccc(CNc2nc(C)nc3onc(C)c23)cc1 [compound 18]	2.73 µM
Cc1nc(NCCC2=CCCCC2)c2c(C)noc2n1 [compound 19]	2.92 µM
Cc1c(Cl)cccc1N1C(=O)C=CC1=O [compound 20]	2.95 µM
O=c1nc(SCc2ccccc2)c2c(n1Cc1ccccc1)CCC2 [compound 21]	3 µM
CCc1noc2nc(C)nc(NCCC3=CCCCC3)c12 [compound 23]	3.14 µM
Cc1ccc(Nc2nc3nonc3nc2Nc2ccccc2F)cc1Cl [compound 24]	3.15 µM
O=C(NNc1ccccc1)c1ccncc1 [compound 25]	3.1 µM
CCn1c2ccccc2c2cc(N3C(=O)C=CC3=O)ccc21 [compound 26]	3.18 µM
CCCCc1ccc(N2C(=O)C=CC2=O)cc1 [compound 27]	3.22 µM
CCCCCCCCCCCCCCCC[N+](C)(C)CCN(Cc1ccc(OC)cc1)c1ncccn1 [compound 28]	3.39 µM
COc1cccc(-c2cc(F)ccc2[C@H]2Cc3nc(N)nc(C)c3C(=O)N2)n1 [compound 29]	3.62 µM
CC(C)CCOc1cccc(OCC(=O)Nc2ccncc2)c1 [compound 30]	3.94 µM
CCc1noc2ncnc(NCCC3=CCCCC3)c12 [compound 31]	4.09 µM
O=C1C=CC(=O)N1c1ccccc1Br [compound 32]	4.61 µM

SMILES	IC50
Oc1cccnc1NC(c1ccc(Cl)cc1)c1ccc2cccnc2c1O (stereo not drawn) [compound 33]	4.63 µM
O=C(Nc1ccc(Br)c(C(F)(F)F)c1)c1cccs1 [compound 38]	4.96 µM
COC(=O)Nc1nc2cc(SC(C)C)ccc2[nH]1 [compound 40]	5.08 µM
O=[N+]([O-])/C=C/c1ccc2c(c1)OCO2 [compound 43]	5.31 µM
COc1ccc(OCc2nnc3sc(-c4ccc(OC)c(OC)c4)nn23)cc1 [compound 47]	5.59 µM
O=C1C=CC(=O)N1CCc1ccccc1 [compound 48]	5.63 µM
c1ccc(CCNc2ncnc3ccsc23)cc1 [compound 49]	5.83 µM
CCCCCCCCCOc1ccc2[nH]cc(CCN)c2c1 [compound 50]	6.04 µM
OC(CNCc1ccc(-c2ccc(Cl)cc2Cl)o1)c1ccccc1 (stereo not drawn) [compound 51]	6.09 µM
Cc1noc2ncnc(N3CCC(c4ccccc4)C3)c12 (stereo not drawn) [compound 53]	6.29 µM
CC(C)(c1ccc(OCC2CO2)cc1)c1ccc(OCC2CO2)cc1 (stereo not drawn) [compound 54]	6.42 µM
Clc1ccc(-c2ccc(CNCc3ccc4c(c3)OCO4)o2)cc1 [compound 55]	6.59 µM
CCOC(=O)C1CCN(c2ncnc3scc(C)c23)CC1 [compound 56]	6.6 µM
COc1cc(Nc2ncc3ccn(-c4cccc(CCC#N)c4)c3n2)cc(OC)c1OC [compound 57]	6.84 µM
Cc1oc2ncnc(N3CCC(C(=O)NCc4ccc(Cl)cc4)CC3)c2c1C [compound 58]	6.87 µM
Cc1ccc(Cl)cc1N1CCN(C(=O)C2CCN(Cc3nc(-c4ccc(Cl)cc4)oc3C)CC2)CC1 [compound 59]	6.93 µM
O=C1C=CC(=O)N1c1ccc(-n2ccc(C(F)(F)F)n2)cc1 [compound 60]	7.06 µM
Cc1ccc2nc(-c3ccc(N4C(=O)CC(N5CCC(C)CC5)C4=O)cc3)sc2c1 (stereo not drawn) [compound 61]	7.28 µM
O=c1c2ccccc2oc2cc(O)cc(O)c12 [compound 62]	7.59 µM
O=C(Nc1ccc(F)c(Cl)c1)c1ccc(Nc2ccnc(-c3ccc(F)cc3)n2)cc1 [compound 63]	7.65 µM
COc1cc(CN2CCCCCCOc3ccccc3Oc3ccc(Cl)cc3NC(=O)C2)ccc1OCCN(C)C [compound 64]	7.75 µM

SMILES	IC50
CC(C)(C)c1cc(C=C(C#N)C#N)cc(C(C)(C)C)c1O [compound 65]	7.87 µM
CCN(CC)CCN1COc2c(cc(Cl)c3cccnc23)C1 [compound 66]	8.08 µM
O=C1C=CC(=O)N1Cc1ccc(Cl)cc1 [compound 67]	8.09 µM
Brc1ccc(-c2ccc(CNCc3ccc4c(c3)OCO4)o2)cc1 [compound 68]	8.1 µM
CSc1cccc(N2C(=O)C=CC2=O)c1 [compound 70]	8.2 µM
CCN(CC)c1cc(C)c2cc(NC(=O)Nc3ccc(Br)cc3)ccc2n1 [compound 71]	8.38 µM
Clc1ccc(-c2ccc(CNCc3ccccn3)o2)c(Cl)c1 [compound 72]	8.46 µM
CC(C)c1ccc2c(c1)CCC1C(C)(CN)CCCC21C (stereo not drawn) [compound 73]	8.59 µM
O=c1cc(-c2ccccc2)cc(-c2ccccc2)n1O [compound 74]	8.63 µM
COc1ccc(-c2cc(C(=O)NCCN3CCCCC3)c3cccc(-c4ccc(F)cc4)c3n2)cc1 [compound 75]	8.74 µM
Cc1ccc(Sc2cccc3nc(N)nc(N)c23)cc1 [compound 76]	8.75 µM
CC1CCN(c2nc(Cl)nc3ccccc23)CC1 [compound 77]	9.01 µM
Nc1nc2ccc(Oc3ccccc3)cc2s1 [compound 78]	9.2 µM
CN(C)CC1COc2ccccc2C1=O (stereo not drawn) [compound 79]	9.27 µM
O=C1C=CC(=O)N1c1ccccc1Oc1ccc(Cl)cc1Cl [compound 80]	9.65 µM
OC(CNCc1ccc(-c2cc(Cl)ccc2Cl)o1)c1ccccc1 (stereo not drawn) [compound 82]	9.78 µM
Cc1nn2c(NCCN(C)C)cc(C(C)(C)C)nc2c1-c1ccc(F)cc1 [compound 83]	9.92 µM
Brc1ccc(-c2ccc(CNCc3ccco3)o2)cc1 [compound 85]	9.96 µM
Cc1nc(NCc2ccccc2)c2c(C)noc2n1 [compound 86]	9.99 µM
CN1CCC(C(=O)N2CCC3(CCCCc4ccccc4OCCN(Cc4ccccc4)C3)CC2)CC1 [compound 87]	10.1 µM
CCc1ccc(-c2nc3ccccn3c2CNCc2cccc(C)c2)cc1 [compound 91]	10.7 µM
